Biological target: T1, CHK1 (Homo sapiens, UniProt O14757)
T1 construct: His; purchased Invitrogen
T1 sequence (O14757 1-476): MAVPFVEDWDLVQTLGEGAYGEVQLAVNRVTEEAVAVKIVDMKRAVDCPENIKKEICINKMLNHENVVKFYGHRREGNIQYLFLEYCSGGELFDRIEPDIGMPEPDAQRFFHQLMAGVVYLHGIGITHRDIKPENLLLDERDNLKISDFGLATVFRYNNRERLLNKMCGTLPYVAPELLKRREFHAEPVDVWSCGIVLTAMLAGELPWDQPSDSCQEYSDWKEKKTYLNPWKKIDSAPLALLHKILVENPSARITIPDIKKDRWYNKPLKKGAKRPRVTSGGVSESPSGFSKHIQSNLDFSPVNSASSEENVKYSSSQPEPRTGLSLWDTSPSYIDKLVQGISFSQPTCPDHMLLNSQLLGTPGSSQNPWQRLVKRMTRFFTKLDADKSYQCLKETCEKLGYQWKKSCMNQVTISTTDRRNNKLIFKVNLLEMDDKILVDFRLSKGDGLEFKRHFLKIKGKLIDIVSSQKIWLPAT
Test: CHK1 Enzyme Assay (phosphorylation of Chktide peptide, 33P-ATP filter assay)
Assay type: biochemical
Settings: 12.5 nM His-CHK1, 0.01 mM ATP, 40 minutes at 30° C.; read-out: CHK1 Enzyme Activity (IC50 range)
Outline: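 Filter-binding radiometric readout of 33P incorporation into Chktide (14.8 μM), after a 40 min, 30 °C reaction at pH 7.5 (50 mM Hepes-NaOH, 0.1 mg/mL BSA). The reaction contained 12.5 nM His-tagged CHK1, inhibitor and 0.01 mM cold ATP plus labelled ATP.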

Structure (SMILES)	IC50 [µM]
CC1CCN(Cc2ccc3[nH]c(-c4cc(NC(=O)c5cnn(Cc6ccc(F)cc6)c5)c[nH]c4=O)cc3c2)CC1 [Example 82, 1-(4-Fluoro-benzyl)-1H-pyrazole-4-carboxylic acid {5-[5-(4-methyl-piperidin-1-ylmethyl)-1H-indol-2-yl]-6-oxo-1,6-dihydro-pyridin-3-yl}-amide]	< 0.1
CCNCc1ccc2[nH]c(-c3cc(NC(=O)c4cnn(Cc5ccc(F)cc5)c4)c[nH]c3=O)cc2c1 [Example 83, 1-(4-Fluoro-benzyl)-1H-pyrazole-4-carboxylic acid [5-(5-ethylaminomethyl-1H-indol-2-yl)-6-oxo-1,6-dihydro-pyridin-3-yl]-amide]	< 0.1
CN(Cc1ccc2[nH]c(-c3cc(NC(=O)c4cnn(Cc5ccc(F)cc5)c4)c[nH]c3=O)cc2c1)C1CCCCC1 [Example 84]	< 0.1
CC(c1ccccc1)n1cc(C(=O)Nc2c[nH]c(=O)c(-c3cc4cc(CN5CCCCC5)ccc4[nH]3)c2)cn1 (stereo not drawn) [Example 85, 1-(1-Phenyl-ethyl)-1H-pyrazole-4-carboxylic acid [6-oxo-5-(5-piperidin-1-ylmethyl-1H-indol-2-yl)-1,6-dihydro-pyridin-3-yl]-amide]	< 0.1
CC(c1ccccc1)n1cc(C(=O)Nc2c[nH]c(=O)c(-c3cc4cc(CN5CCOCC5)ccc4[nH]3)c2)cn1 (stereo not drawn) [Example 86, 1-(1-Phenyl-ethyl)-1H-pyrazole-4-carboxylic acid [5-(5-morpholin-4-ylmethyl-1H-indol-2-yl)-6-oxo-1,6-dihydro-pyridin-3-yl]-amide]	< 0.1
CC(c1ccc(F)cc1)n1cc(C(=O)Nc2c[nH]c(=O)c(-c3cc4cc(CN5CCCCC5)ccc4[nH]3)c2)cn1 (stereo not drawn) [Example 88, 1-[1-(4-Fluoro-phenyl)-ethyl]-1H-pyrazole-4-carboxylic acid [6-oxo-5-(5-piperidin-1-ylmethyl-1-H-indol-2-yl)-1,6-dihydro-pyridin-3-yl]-amide]	< 0.1
CC(c1ccc(F)cc1)n1cc(C(=O)Nc2c[nH]c(=O)c(-c3cc4cc(CN5CCN(C)CC5)ccc4[nH]3)c2)cn1 (stereo not drawn) [Example 89, 1-[1-(4-Fluoro-phenyl)-ethyl]-1H-pyrazole-4-carboxylic acid {5-[5-(4-methylpiperazin-1-ylmethyl)-1H-indol-2-yl]-6-oxo-1,6-dihydro-pyridin-3-yl}-amide]	< 0.1
CC(c1ccc(F)cc1)n1cc(C(=O)Nc2c[nH]c(=O)c(-c3cc4cc(CN5CCC(F)CC5)ccc4[nH]3)c2)cn1 (stereo not drawn) [Example 90, 1-[1-(Fluoro-phenyl)-ethyl]-1H-pyrrazole-4-carboxylic acid {5-[5-(4-fluoro-piperidin-1ylmethyl)-1H-indol-2-yl]-6-oxo-1,6-dihydro-pyridin-3-yl}-amide]	< 0.1
CC(c1ccccc1)n1cc(C(=O)Nc2c[nH]c(=O)c(-c3cc4cc(CN5C[C@@H](C)O[C@@H](C)C5)ccc4[nH]3)c2)cn1 (stereo partly drawn) [Example 91, 1-(1-Phenyl-ethyl)-1H-pyrazole-4-carboxylic acid {5-[5-(cis-2,6-dimethyl-morpholin-4-ylmethyl)-1H-indol-2-yl]-6-oxo-1,6-dihydro-pyridin-3-yl}-amide]	< 0.1
CC1CCN(Cc2ccc3[nH]c(-c4cc(NC(=O)c5cnn(C(C)c6ccccc6)c5)c[nH]c4=O)cc3c2)CC1 (stereo not drawn) [Example 92, 1-(1-Phenyl-ethyl)-1H-pyrazole-4-carboxylic acid {5-[5-(4-methyl-piperidin-1-ylmethyl)-1H-indol-2-yl]-6-oxo-1,6-dihydro-pyridin-3-yl}-amide]	< 0.1
CC(c1ccccc1)n1cc(C(=O)Nc2c[nH]c(=O)c(-c3cc4ccccc4[nH]3)c2)cn1 (stereo not drawn) [Example 93, 1-(1-Phenylethyl)-1H-pyrazole-4-carboxylic acid [5-(1H-indol-2-yl)-6-oxo-1,6-dihydropyridin-3-yl]-amide]	< 0.1
O=C(Nc1c[nH]c(=O)c(-c2cc3ccccc3[nH]2)c1)c1cnn(CCCc2ccccc2)c1 [Example 94, 1-(3-Phenyl-propyl)-1H-pyrazole-4-carboxylic acid [5-(1H-indol-2-yl)-6-oxo-1,6-dihydro-pyridin-3-yl]-amide]	< 0.1
